Molecules are shown by their SMILES. “And” between values parts separate entries of the source, which are not always exact repeats. Identical values can stand only once. Like-named read-outs stand apart in the source and are kept apart here.

One assay has as its target HIV-1 RT WT (Human immunodeficiency virus type 1 group M subtype B, UniProt P04585). Description: biochemical. As to the method: (§1) Plasmids pET-RT66 and p6H-RT51, which overexpress HIV-1 RT subunits p66 and His6-tagged p51, were generously provided by Samuel Wilson (NIH). Mutations K103N and Y181C were each introduced into pET-RT66 using QuikChange^TM mutagenesis. Subunits p66 and His6-p51 were overproduced in E. coli strains BL21/DE3 and DH5α, respectively, and the RT heterodimer (WT or mutant forms) was reconstituted in mixed lysates and purified essentially as described. Each overexpression strain was grown in LB medium with appropriate antibiotics at 37 °C until the culture reached an OD600 of 0.6, IPTG (0.5 mM) was added, and the culture was further incubated for 3.5 h to allow ample protein production. Cells (from 4 L culture) were pelleted and stored at −20 °C. All subsequent steps were performed at 4 °C. Each cell pellet was resuspended in 20 mL buffer A [50 mM Tris-HCl (pH 7.9), 60 mM NaCl, 10% glycerol, 1 mM βME, and protease inhibitors (Protease Inhibitor Cocktail, Roche Diagnostics)], and the cells were lysed using a French Press. The lysate was clarified by centrifugation at 5900 g for 15 min, and the protein concentration of each lysate was estimated using the Bradford assay. Based on these estimates, each p66 strain lysate was separately mixed with p51 strain lysate in a 3:1 ratio. Each mixture was passed through a Q-Sepharose column (2 mL, Bio-Rad), pre-equilibrated with buffer A, and the flow-through (containing HIV-1 RT) was collected. NaCl (0.5 M), imidazole (10 mM), and 4 mL of His-Bind nickel column resin (Ni-NTA Agarose, QIAGEN) pre-equilibrated in buffer B [50 mM Tris-HCl (pH 7.9), 500 mM NaCl, 10 mM imidazole, 10% glycerol, and 1 mM βME] were added, and the mixture was rotated for 1 h. The resin was poured into a column and washed with 10 column volumes (CV) of buffer B, 10 CV of buffer C [50 mM Tris-HCl (pH 7.9), 1 M NaCl, 10 mM imidazole, 10% glycerol, and 1 mM βME], and 10 CV of buffer D [50 mM Tris-HCl (pH 7.9), 1 M NaCl, 15 mM imidazole, 10% glycerol, and 1 mM βME]. Proteins were eluted from the column with an imidazole gradient (10–500 mM) in buffer B. Fractions (0.5 mL) were collected, and DTT (2 mM) and EDTA (5 mM) were added to each fraction. Fractions were analyzed by SDS-PAGE, and those containing p66 and p51 at a 1:1 ratio were pooled. The RT was further purified using a FPLC RESOURCE S column (6 mL, GE Healthcare). The protein was bound to the column, washed with 10 CV of buffer E [50 mM Tris-HCl (pH 6.5), 60 mM NaCl, 10% glycerol, and 1 mM βME], and eluted using a NaCl gradient. Fractions (0.5 mL) containing purified RT with p66 and p51 subunits at a 1:1 ratio were pooled, dialyzed against buffer F [50 mM Tris-HCl (pH 7.5), 100 mM NaCl, 1 mM βME, and 10% glycerol], and stored at −20 °C.
(§2) To assay multi-nucleotide incorporation by RT, 5′-[^32P]-labeled primer (~0.05 µM) was annealed to mRNA (0.33 µM, unless otherwise indicated), RT (HIV-1 or AMV; 32 nM) and the four deoxynucleotide triphosphates (dNTPs; 375 µM each) in buffer G [10 mM Tris-HCl (pH 7.5), 60 mM NH4Cl, 10 mM MgCl2, and 6 mM βME] were added, in the absence or presence of inhibitor (as indicated), and reactions were incubated at 37 °C for 10 min. An equal volume of stop buffer (95% formamide, 20 mM EDTA, 0.05% xylene cyanol, and 0.05% bromophenol blue) was added, and products were analyzed by denaturing 7% PAGE. The relative amount of the full-length cDNA product (y) was plotted as a function of inhibitor concentration, and the data were fit to the modified dose response equation y = a + b/[1 + (x/c)]

Another assay has as its target T1, HIV-1 RT K103N (Human immunodeficiency virus type 1 group M subtype B, UniProt P04585, K690N).
T1 construct: overexpress HIV-1 RT subunits p66 and His6-tagged p51; made in house; host or cells: E. coli BL21/DE3 (p66) and DH5α (His6-p51)
The assay is described as follows: Multi-nucleotide primer extension assay, K103N HIV-1 RT. As to conditions: mean ± SEM from 3 or more independent experiments. The assay is classed as biochemical. The procedure:
as §1, §2

For the next assay, the target named is T2, HIV-1 RT Y181C (Human immunodeficiency virus type 1 group M subtype B, UniProt P04585, Y768C).
T2 construct: overexpress HIV-1 RT subunits p66 and His6-tagged p51; made in house; host or cells: E. coli BL21/DE3 (p66) and DH5α (His6-p51)
Description: Multi-nucleotide primer extension assay, Y181C HIV-1 RT. It is filed as biochemical. As to the method:
as §1, §2

Assay [1] deals with Radiolabeled DNA oligonucleotide. The assay is described as follows: Ultrafiltration binding experiment, DNA oligonucleotide. As to conditions: fraction in complexes >300 kDa by ultrafiltration (300 kDa MWCO), buffer H, 25 °C, 15 min, read-out: apparent KD, DNA oligonucleotide. As to the method: (§3) For binding reactions, components were incubated in buffer H at 25 °C for 15 min. The fraction of bound 5′-[^32P]-labeled nucleic acid was evaluated using native 6% PAGE or ultrafiltration devices (Nanosep Omega, PALL Life Sciences).

The target of assay [2] is Radiolabeled RNA oligonucleotide. Description: Ultrafiltration binding experiment, RNA oligonucleotide. As to conditions: fraction in complexes >300 kDa by ultrafiltration (300 kDa MWCO), buffer H, 25 °C, 15 min, read-out: apparent KD, RNA oligonucleotide. The procedure:
as §3

Assay [3] relates to radiolabeled 18mer DNA oligonucleotide. The assay is described as follows: Gel mobility shift experiment (native PAGE). As to conditions: compound 100 µM preincubated with 18mer DNA, native gel electrophoresis. The assay is classed as binding. The procedure:
as §3

Assay [4] deals with avian myeloblastosis virus (AMV) reverse transcriptase (RT). The assay is described as follows: Multi-nucleotide primer extension assay, AMV RT. The assay is classed as biochemical. The note with it: primer extension on RNA template, 10 min at 37 °C; read-out: IC50, full-length cDNA product, AMV RT. As to the method:
as §2

Another assay has as its system AMV RT. Description: Single-nucleotide incorporation kinetics (quench-flow), AMV RT. As to conditions: read-out: IC50, amplitude of single-nucleotide incorporation. The assay is classed as biochemical, avian myeloblastosis virus. The procedure: (§4) Single-nucleotide incorporation by RT was measured using a quench-flow machine (KinTek RQF-3). Typically, 5′-[^32P]-labeled primer (<0.05 µM) was annealed to mRNA (0.2 µM), equilibrated in buffer H [Tris-HCl (pH 7.5), 80 mM KCl, 20 mM MgCl2, 2 mM DTT] with RT (AMV or HIV-1, as indicated) in the absence or presence of inhibitor (as indicated), and rapidly mixed with dATP (variable concentration, as indicated). Each reaction was quenched with 0.5 M EDTA at various time points; the data were plotted and fit to a single exponential equation to obtain observed rate and amplitude.

In a further assay the target is T3, HIV-1 RT (Human immunodeficiency virus type 1 group M subtype B, UniProt P04585).
T3 construct: overexpress HIV-1 RT subunits p66 and His6-tagged p51; made in house; host or cells: E. coli BL21/DE3 (p66) and DH5α (His6-p51)
Description: Order-of-addition single-nucleotide incorporation, HIV-1 RT. It is filed as biochemical. As to conditions: 20 min 37 °C, then combined 1 min. As to the method: as §4

In the case of `CCCCCCCCSC[C@H]1O[C@H](O[C@@H]2[C@@H](O)[C@H](O[C@H]3O[C@H](CN)[C@@H](O)[C@H](O)[C@H]3N)[C@@H](N)C[C@H]2N)[C@H](O)[C@@H](N)[C@@H]1O` [KANB-C8], the values for the IC50 on HIV-1 RT WT, against HIV-1 RT K103N and against HIV-1 RT Y181C were 8 ± 3 µM, 7 ± 1 µM and 8 ± 2 µM, respectively.

Regarding `CCCCCCCCCCSC[C@H]1O[C@H](O[C@@H]2[C@@H](O)[C@H](O[C@H]3O[C@H](CN)[C@@H](O)[C@H](O)[C@H]3N)[C@@H](N)C[C@H]2N)[C@H](O)[C@@H](N)[C@@H]1O` [KANB-C10], the figures for the IC50 against HIV-1 RT WT, at HIV-1 RT K103N and at HIV-1 RT Y181C were 3.8 ± 0.3 µM, 1.9 ± 0.3 µM and 1 ± 0.6 µM, respectively.

In the case of `CCCCCCCCCCCCSC[C@H]1O[C@H](O[C@@H]2[C@@H](O)[C@H](O[C@H]3O[C@H](CN)[C@@H](O)[C@H](O)[C@H]3N)[C@@H](N)C[C@H]2N)[C@H](O)[C@@H](N)[C@@H]1O` [KANB-C12], the IC50 at HIV-1 RT WT worked out at 1.9 ± 0.3 µM; against HIV-1 RT K103N, 2 ± 0.2 µM; against HIV-1 RT Y181C it was 0.5 ± 0.3 µM. For the same compound, the Kd in [1] (listed as KAN-C12) is 0.6 µM; in assay [1] it was approximately 1 µM; in assay [2] (listed as KAN-C12), 1.1 µM; in assay [2], approximately 1 µM. Besides, the “Gel mobility shift of oligonucleotide” value in [3] is on record as “all signal was shifted to the well”.

In the case of `CCCCCCCCCCCCSC[C@H]1O[C@H](O[C@@H]2[C@@H](O)[C@H](O[C@H]3O[C@H](CN)[C@@H](O)C[C@H]3N)[C@@H](N)C[C@H]2N)[C@H](O)[C@@H](N)[C@@H]1O` [TOB-C12], the IC50 was ~1 µM and 1.6 µM in assay [4]; 0.3 ± 0.1 µM against HIV-1 RT WT; 0.6 ± 0.1 µM on HIV-1 RT K103N; 0.5 ± 0.1 µM against HIV-1 RT Y181C; 13 µM in the assay with AMV RT (dATP at 10 µM); 17 µM in the assay with AMV RT (dATP at 150 µM). Further, the “Product formation, single-nucleotide incorporation” value at HIV-1 RT (compound preincubated with RT) was “hindered product formation to a lesser degree”; on HIV-1 RT (compound preincubated with primer:template in the absence of RT) it was “no detectable product”.

Consider `CCCCCCCCCCCCCCSC[C@H]1O[C@H](O[C@@H]2[C@@H](O)[C@H](O[C@H]3O[C@H](CN)[C@@H](O)C[C@H]3N)[C@@H](N)C[C@H]2N)[C@H](O)[C@@H](N)[C@@H]1O` [TOB-C14], for which the IC50 is ~1 µM and 1.1 µM in [4]; 1.9 ± 0.3 µM on HIV-1 RT WT; 1.2 ± 0.6 µM on HIV-1 RT K103N; 1.4 ± 0.4 µM at HIV-1 RT Y181C.

Turning to `NC[C@H]1O[C@H](O[C@H]2[C@H](O)[C@@H](O[C@H]3O[C@H](CSc4ccc5ccccc5c4)[C@@H](O)[C@H](N)[C@H]3O)[C@H](N)C[C@@H]2N)[C@H](N)C[C@@H]1O` [TOB-Nap], the IC50 in [4] came to 23 µM; at HIV-1 RT WT, 40 ± 5 µM; on HIV-1 RT K103N, 40 ± 11 µM; on HIV-1 RT Y181C, 12 ± 4 µM.

The values are drawn from article PMC7168264, “Modified Aminoglycosides Bind Nucleic Acids in High-Molecular-Weight Complexes” (Antibiotics, 2020).
